Measurements as given in patent publication US20230059463A1, “3-(2-BROMO-4-ALKYNYL-6-ALKOXYPHENYL)-SUBSTITUTED 5-SPIROCYCLOHEXYL-3-PYRROLIN-2-ONES AND THEIR USE AS HERBICIDES” (Bayer Aktiengesellschaft, priority 2019, published 2023).

What was measured:
Format in all cases: in vivo
Setaria viridis [1] = assay: Post-emergence herbicidal effect; settings: 80 g/ha, post-emergence at one-leaf stage, assessed visually after about 3 weeks; 100% = plants have died, 0% = like control plants
Procedure: (§1) Seeds of monocotyledonous and dicotyledonous weed and crop plants are laid out in sandy loam soil in wood-fiber pots, covered with soil and cultivated in a greenhouse under good growth conditions. 2 to 3 weeks after sowing, the test plants are treated at the one-leaf stage. The compounds of the invention, formulated in the form of wettable powders (WP) or as emulsion concentrates (EC), are then sprayed onto the green parts of the plants as aqueous suspension or emulsion at a water application rate equating to 600 to 800 l/ha with addition of 0.2% wetting agent. After the test plants have been left to stand in the greenhouse under optimal growth conditions for about 3 weeks, the action of the preparations is assessed visually in comparison to untreated controls (herbicidal action in per cent (%): 100% activity=the plants have died, 0% activity=like control plants).

Echinochloa crus-galli [2] = assay: Post-emergence herbicidal effect; settings: 80 g/ha, post-emergence at one-leaf stage, assessed visually after about 3 weeks; 100% = plants have died, 0% = like control plants
Procedure: as §1

Lolium rigidum [3] = assay: Post-emergence herbicidal effect; settings: 80 g/ha, post-emergence at one-leaf stage, assessed visually after about 3 weeks; 100% = plants have died, 0% = like control plants
Procedure: as §1

Digitaria sanguinalis = assay: Post-emergence herbicidal effect; settings: 80 g/ha, post-emergence at one-leaf stage, assessed visually after about 3 weeks; 100% = plants have died, 0% = like control plants
Procedure: as §1

Alopecurus myosuroides [4] = assay: Post-emergence herbicidal effect; settings: 80 g/ha, post-emergence at one-leaf stage, assessed visually after about 3 weeks; 100% = plants have died, 0% = like control plants
Procedure: as §1

Setaria viridis [5] = assay: Pre-emergence herbicidal effect; settings: 80 g/ha, scored visually after 3 weeks, 100% = plants have died, 0% = like control plants
Excerpt: (§2) Seeds of monocotyledonous and dicotyledonous weed plants and crop plants are laid out in sandy loam soil in wood-fiber pots and covered with soil. The compounds of the invention, formulated in the form of wettable powders (WP) or as emulsion concentrates (EC), are then applied to the surface of the covering soil as aqueous suspension or emulsion at a water application rate equating to 600 to 800 L/ha with addition of 0.2% wetting agent.
(§3) After the treatment, the pots are placed in a greenhouse and kept under good growth conditions for the trial plants. The damage to the test plants is scored visually after a test period of 3 weeks by comparison with untreated controls (herbicidal activity in percent (%): 100% activity=the plants have died, 0% activity=like control plants).

Hordeum murinum [6] = assay: Pre-emergence herbicidal effect; settings: 80 g/ha, scored visually after 3 weeks, 100% = plants have died, 0% = like control plants
Excerpt: as §2, §3

Avena fatua = assay: Pre-emergence herbicidal effect; settings: 80 g/ha, scored visually after 3 weeks, 100% = plants have died, 0% = like control plants
Excerpt: as §2, §3

Echinochloa crus-galli [7] = assay: Pre-emergence herbicidal effect; settings: 80 g/ha, scored visually after 3 weeks, 100% = plants have died, 0% = like control plants
Excerpt: as §2, §3

Lolium rigidum [8] = assay: Pre-emergence herbicidal effect; settings: 80 g/ha, scored visually after 3 weeks, 100% = plants have died, 0% = like control plants
Excerpt: as §2, §3

Alopecurus myosuroides [9] = assay: Pre-emergence herbicidal effect; settings: 80 g/ha, scored visually after 3 weeks, 100% = plants have died, 0% = like control plants
Excerpt: as §2, §3

Hordeum murinum [10] = assay: Post-emergence herbicidal effect; settings: 80 g/ha, post-emergence at one-leaf stage, assessed visually after about 3 weeks; 100% = plants have died, 0% = like control plants
Procedure: as §1

Row | Structure (SMILES) | Post-emergence action against SETVI (herbicidal action in per cent) (Setaria viridis [1]) [%] | Post-emergence action against ECHCG (herbicidal action in per cent) (Echinochloa crus-galli [2]) [%] | Post-emergence action against LOLRI (herbicidal action in per cent) (Lolium rigidum [3]) [%] | Post-emergence action against DIGSA (herbicidal action in per cent) (Digitaria sanguinalis) [%] | Post-emergence action against ALOMY (herbicidal action in per cent) (Alopecurus myosuroides [4]) [%] | Pre-emergence action against SETVI (herbicidal activity in percent) (Setaria viridis [5]) [%] | Pre-emergence action against HORMU (herbicidal activity in percent) (Hordeum murinum [6]) [%] | Pre-emergence action against AVEFA (herbicidal activity in percent) (Avena fatua) [%] | Pre-emergence action against ECHCG (herbicidal activity in percent) (Echinochloa crus-galli [7]) [%] | Pre-emergence action against LOLRI (herbicidal activity in percent) (Lolium rigidum [8]) [%] | Pre-emergence action against ALOMY (herbicidal activity in percent) (Alopecurus myosuroides [9]) [%] | Post-emergence action against HORMU (herbicidal action in per cent) (Hordeum murinum [10]) [%]
1 | C#Cc1cc(Br)c(C2=C(OC(=O)OCC)C3(CCCC(OCCC)C3)NC2=O)c(OC)c1 (centres unmarked) [Example 1.1.03] | 100 | 90 | 80 | 90 | 80 | 100 | 90 | 90 | 100 | 100 | 90 | 
2 | C#Cc1cc(Br)c(C2=C(OC(=O)C(C)C)C3(CCCC(OCCC)C3)NC2=O)c(OC)c1 (centres unmarked) [Example 1.1.04] | 100 | 80 | 80 | 90 | 90 | 100 | 90 | 90 | 100 | 100 | 100 | 
3 | C#Cc1cc(Br)c(C2=C(O)C3(CCCC(OCCOC)C3)NC2=O)c(OC)c1 (centres unmarked) [Example 1.1.05] | 90 | 80 | 80 | 80 | 90 | 100 | 90 | 90 | 100 | 100 | 90 | 
4 | C#Cc1cc(Br)c(C2=C(OC(=O)OCC)C3(CCCC(OCCOC)C3)NC2=O)c(OC)c1 (centres unmarked) [Example 1.1.07] | 90 | 80 | 80 | 90 | 80 | 100 | 90 | 90 | 100 | 100 | 90 | 
5 | C#Cc1cc(Br)c(C2=C(OC(=O)C(C)C)C3(CCCC(OCCOC)C3)NC2=O)c(OC)c1 (centres unmarked) [Example 1.1.08] | 90 | 80 | 90 | 90 | 90 | 100 | 90 | 90 | 100 | 100 | 100 | 
6 | CC#Cc1cc(Br)c(C2=C(O)C3(CCCC(OCCC)C3)NC2=O)c(OC)c1 (centres unmarked) [Example 1.1.09, 3-[2-Bromo-6-methoxy-4-(prop-1-yn-1-yl)phenyl]-7-propoxy-1-azaspiro[4.5]decane-2,4-dione] | 90 | 90 | 90 |  | 90 | 100 | 100 | 100 | 100 | 100 | 100 | 100
7 | CC#Cc1cc(Br)c(C2=C([O-])C3(CCCC(OCCC)C3)NC2=O)c(OC)c1.[Na+] (centres unmarked) [Example 1.1.10] | 90 | 100 | 90 |  | 90 | 100 | 100 | 100 | 100 | 100 | 90 | 100
8 | CC#Cc1cc(Br)c(C2=C(OC(=O)OCC)C3(CCCC(OCCC)C3)NC2=O)c(OC)c1 (centres unmarked) [Example 1.1.11, 3-[2-Bromo-6-methoxy-4-(prop-1-yn-1-yl)phenyl]-2-oxo-7-propoxy-1-azaspiro[4.5]dec-3-en-4-yl ethyl carbonate] |  |  |  |  |  |  |  |  |  |  |  | 100
9 | CC#Cc1cc(Br)c(C2=C(OC(=O)C(C)C)C3(CCCC(OCCC)C3)NC2=O)c(OC)c1 (centres unmarked) [Example 1.1.12] |  |  |  |  |  | 100 | 100 | 90 | 100 | 100 | 100 | 
10 | CC#Cc1cc(Br)c(C2=C(O)C3(CCCC(OCCOC)C3)NC2=O)c(OC)c1 (centres unmarked) [Example 1.1.13] | 100 | 100 | 100 |  | 100 | 100 | 100 | 100 | 100 | 100 | 100 | 100
11 | CC#Cc1cc(Br)c(C2=C([O-])C3(CCCC(OCCOC)C3)NC2=O)c(OC)c1.[Na+] (centres unmarked) [Example 1.1.14] | 90 | 90 | 90 |  | 80 | 100 | 100 | 100 | 100 | 100 | 100 | 80
12 | COCCOC1CCCC2(C1)NC(=O)C(c1c(Br)cc(C#CBr)cc1OC)=C2O (centres unmarked) [Example 1.1.23] | 100 | 90 | 80 | 80 | 90 | 100 |  |  |  | 90 | 90 | 
13 | CCOC(=O)OC1=C(c2c(Br)cc(C#CBr)cc2OC)C(=O)NC12CCCC(OCCOC)C2 (centres unmarked) [Example 1.1.25] | 90 | 90 | 80 | 80 | 90 | 100 |  |  |  | 90 | 80 | 
